Measured values reported in the supplement of paper PMC10307832.

Key:
Assay in all cases: relative viability (nuclei count vs DMSO), 5 days (fraction); higher = more cells survive
CUDC-101 + Tozasertib = compound: C#Cc1cccc(Nc2ncnc3cc(OC)c(OCCCCCCC(=O)NO)cc23)c1 [CUDC-101] + Cc1cc(Nc2cc(N3CCN(C)CC3)nc(Sc3ccc(NC(=O)C4CC4)cc3)n2)n[nH]1 [Tozasertib] (partner 0.1 µM)
Method in brief: (§1)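 Relative viability was taken as the ratio of nuclei in treated wells to nuclei in vehicle wells. Lung cancer cell lines in 1536-well plates received compounds by pin tool one day after seeding, either one drug alone or a fixed anchor-drug dose plus five library-drug doses (not always all listed) in √10 steps. Nuclei were counted on 4× images after 5 days of treatment, and values are medians of duplicate plates.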

[1] = compound: C1=CC=C2C(=C1)N=C(S2)C(C#N)C3=NC(=NC=C3)NCCC4=CN=CC=C4 + Cc1nc(NC(=O)N2CCC[C@H]2C(N)=O)sc1-c1ccnc(C(C)(C)C(F)(F)F)c1 [Alpelisib] (partner 2 µM)
Method in brief: as §1

[2] = compound: C1=CC=C2C(=C1)N=C(S2)C(C#N)C3=NC(=NC=C3)NCCC4=CN=CC=C4 + Nc1ncn([C@H]2C[C@H](O)[C@@H](CO)O2)c(=O)n1 [Decitabine] (partner 2 µM)
Method in brief: as §1

Vandetanib + Alpelisib = compound: COc1cc2/c(=N/c3ccc(Br)cc3F)nc[nH]c2cc1OCC1CCN(C)CC1 [Vandetanib] + Cc1nc(NC(=O)N2CCC[C@H]2C(N)=O)sc1-c1ccnc(C(C)(C)C(F)(F)F)c1 [Alpelisib] (partner 2 µM)
Method in brief: as §1

Cell Line	relative viability (CUDC-101 + Tozasertib; first compound 0.01 µM)	relative viability (CUDC-101 + Tozasertib; first compound 0.03162 µM)	relative viability (CUDC-101 + Tozasertib; first compound 0.1 µM)	relative viability (CUDC-101 + Tozasertib; first compound 0.3162 µM)	relative viability (CUDC-101 + Tozasertib; first compound 1 µM)	relative viability ([1]; first compound 0.005 µM)	relative viability ([1]; first compound 0.01581 µM)	relative viability ([1]; first compound 0.05 µM)	relative viability ([1]; first compound 0.1581 µM)	relative viability ([1]; first compound 0.5 µM)	relative viability ([2]; first compound 0.005 µM)	relative viability ([2]; first compound 0.01581 µM)	relative viability ([2]; first compound 0.05 µM)	relative viability ([2]; first compound 0.1581 µM)	relative viability ([2]; first compound 0.5 µM)	relative viability (Vandetanib + Alpelisib; first compound 0.02 µM)	relative viability (Vandetanib + Alpelisib; first compound 0.06325 µM)	relative viability (Vandetanib + Alpelisib; first compound 0.2 µM)	relative viability (Vandetanib + Alpelisib; first compound 0.6325 µM)	relative viability (Vandetanib + Alpelisib; first compound 2 µM)
201T	0.927	0.899	0.876	0.69	0.536	0.995	1.08	1.04	1.03	0.967	0.772	0.91	0.868	0.833	0.911	1.08	0.959	0.985	0.977	0.995
A549						0.64	0.9	0.696	1.02	0.82	0.239	0.33	0.239	0.312	0.323	0.686	0.698	0.613	0.751	0.663
A-427	0.211	0.227	0.219	0.205	0.165	1.08	1.01	0.996	1.09	1.16	0.599	0.495	0.568	0.555	0.574	0.951	1.01	1.11	1.06	1.1
ABC-1	0.139	0.186	0.189	0.166	0.128	1.05	1.05	1.2	0.961	1.07	0.915		0.906	1.15	1.13	1.01	0.787	0.95	1.12	0.827
BEN	0.54	0.505	0.452	0.47	0.427	0.763	1.1	0.931	0.99	0.932	0.654	0.666	0.664	0.863	0.811	0.976	0.897	0.928	1.04	0.867
CAL-12T	0.409	0.278	0.318	0.344	0.362	0.982	1.23	1.31	1.49	1.05						0.993	0.956	1.44	1.26	0.73
COR-L23	0.245	0.202	0.208	0.218	0.159	0.748	0.756	0.841	0.877	0.742	0.439	0.45	0.415	0.472	0.424	0.701	0.528	0.114	0.773	0.902
COR-L 105	0.266	0.353	0.342	0.27	0.311	1.06	1.22	0.856	0.955	0.678	0.597	0.628	0.638	0.637	0.642	1.04	0.864	0.998	0.932	0.425
Calu-6						0.957	0.921	0.921	1.03	0.998						0.99	1.01	0.881	0.895	0.843
ChaGo-K-1	0.216	0.214	0.246	0.238	0.208						0.488	0.53	0.518	0.542	0.511					
EBC-1						0.819	0.935	0.76	0.829	0.925						0.81	0.784	0.862	0.809	0.746
EKVX	0.392	0.32	0.394	0.366	0.295	0.763	0.981	0.902	0.844	0.69	0.152	0.286	0.309	0.329	0.23	0.95	0.873	0.86	0.777	0.424
EMC-BAC-2	0.312	0.208	0.251	0.209	0.199	0.566	0.768	0.686	0.76	0.67	0.872	0.984	0.916	1.04	0.91	0.737	0.742	0.472	0.712	0.717
EPLC-272H	0.216	0.284	0.306	0.231	0.121	0.854	0.819	1.02	1.03	0.768	0.501	0.337	0.36	0.385	0.309	0.865	0.814	0.96	0.909	0.997
H3255	0.649	0.591		0.549	0.135	0.545	0.685	0.591	0.806	0.692	0.574	0.561	0.561	0.639	0.726	0.681	0.634	0.602	0.335	0.119
HARA	0.116	0.108	0.101	0.0938	0.0704	0.794	0.794	0.744	0.893	0.838	0.7	0.574	0.634	0.538	0.584	0.812	0.76	0.861	0.821	0.537
HCC-15	0.383	0.368	0.314	0.322	0.238	0.927	0.833	0.905	0.954	0.853	0.568	0.608	0.644	0.66	0.564	0.877	0.84	0.93	0.874	0.793
HCC-44	0.795	0.899	0.999	0.917	0.7	0.716	0.835	0.737	0.915	0.638	0.956	0.933	0.971	0.978	1.01	0.799	0.812	0.999	0.807	0.762
HCC-78	0.401	0.405	0.36	0.316	0.184	0.366	0.316	0.353	0.366	0.378	0.776	0.779	0.634	0.825	0.747	0.346	0.32	0.337	0.321	0.288
HCC-366	0.127	0.111	0.0975	0.111	0.0886	0.428	0.475	0.314	0.475	0.389	0.328	0.385	0.363	0.344	0.321	0.44	0.289	0.328	0.528	0.226

Cell Line	relative viability (CUDC-101 + Tozasertib; first compound 0.01 µM)	relative viability (CUDC-101 + Tozasertib; first compound 0.03162 µM)	relative viability (CUDC-101 + Tozasertib; first compound 0.1 µM)	relative viability (CUDC-101 + Tozasertib; first compound 0.3162 µM)	relative viability (CUDC-101 + Tozasertib; first compound 1 µM)	relative viability ([1]; first compound 0.005 µM)	relative viability ([1]; first compound 0.01581 µM)	relative viability ([1]; first compound 0.05 µM)	relative viability ([1]; first compound 0.1581 µM)	relative viability ([1]; first compound 0.5 µM)	relative viability ([2]; first compound 0.005 µM)	relative viability ([2]; first compound 0.01581 µM)	relative viability ([2]; first compound 0.05 µM)	relative viability ([2]; first compound 0.1581 µM)	relative viability ([2]; first compound 0.5 µM)	relative viability (Vandetanib + Alpelisib; first compound 0.02 µM)	relative viability (Vandetanib + Alpelisib; first compound 0.06325 µM)	relative viability (Vandetanib + Alpelisib; first compound 0.2 µM)	relative viability (Vandetanib + Alpelisib; first compound 0.6325 µM)	relative viability (Vandetanib + Alpelisib; first compound 2 µM)
HCC-827	0.381	0.236	0.143	0.111	0.101	0.962	1.01	0.943	1.15	1.02	0.318	0.322	0.319	0.399	0.328	1.02	0.986	0.752	0.233	0.167
HOP-62	0.343	0.379	0.399	0.405	0.321	0.966	1.34	1.09	1.3	1.21	0.219	0.184	0.263	0.234	0.248	0.814	0.836	0.746	0.972	0.993
IA-LM							0.628	0.608	0.916	0.734						0.588	0.783	0.791	0.961	0.811
LC-2-ad	0.445	0.47	0.449	0.326	0.276	0.768	0.867	0.822	0.966	0.734	0.698	0.819	0.818	0.827	0.726	0.815	0.876	0.898	0.802	0.498
LCLC-97TM1	0.197	0.357	0.152	0.195	0.104	0.217	0.208	0.257	0.257	0.217	0.192	0.215	0.293	0.237	0.222	0.223	0.243	0.204	0.22	0.209
LCLC-103H	0.54	0.494	0.485	0.418	0.322	0.926	0.983	0.971	0.901	0.915	0.723	0.731	0.69	0.762	0.751	0.923	0.898	0.983	0.972	0.943
LK-2	0.149	0.222	0.185	0.195	0.139			0.993	1.3	1.11	0.27	0.288	0.39	0.352	0.352	0.951	1.04	1.11	1.16	1.11
LOU-NH91	0.703	0.548	0.472	0.411	0.305	0.707	0.752	0.62	0.723	0.698	0.85	0.822	0.765	0.818	0.8	0.753	0.619	0.539	0.551	0.481
LU99A	0.273	0.269	0.242	0.277	0.273	0.509	0.545	0.522	0.548	0.536	0.693	0.966		1	0.817	0.52	0.446	0.511	0.414	0.596
NCI-H522	0.602	0.53	0.539	0.528	0.366						0.718	0.651	0.607	0.639	0.66					
NCI-H1299						1.06	1.14	1.04	1.13	1.1						0.956	0.997	1.07	1.09	1.04
NCI-H1563						0.924	0.869	0.947	0.962	0.861						0.852	0.958	0.88	0.904	0.916
NCI-H1623	0.406	0.379	0.389	0.356	0.272															
NCI-H1648	0.64		0.636	0.362	0.221							0.438		0.535	0.388					
NCI-H1650	0.398	0.318	0.305	0.383	0.267						0.335	0.333	0.496	0.432	0.407					
NCI-H1703						0.338	0.31	0.344	0.362	0.357						0.306		0.347	0.284	0.222
NCI-H1792							0.817	0.696	0.891	0.517		0.736	0.638	0.675	0.388	0.676	0.672	0.694	0.705	0.565
NCI-H2228	0.255	0.237	0.263	0.317	0.194	0.513	0.715	0.754	0.818	0.524						0.75	0.587		0.712	0.624
NCI-H2342	0.592	0.55	0.474	0.437	0.453						0.727	0.844	0.694	0.837	0.71					
SW 900	0.471	0.633	0.566	0.526	0.519						0.393	0.342	0.401	0.557	0.391					
